Experimental data published in patent publication US20100003711A1, “Methods to identify therapeutic agents” (THE SCRIPPS RESEARCH INSTITUTE, priority 2005, published 2010).

Key:
[1] = tested on: leukocyte cell lines; assay: Cytotoxicity to leukocyte cell lines (similar procedures); format: cell-based
Protocol: Cytotoxicity assays. WI-L2 human B-lymphocyte line, HAAE-1 human abdominal aortic endothelial line, MH-S murine alveolar macrophage line, and J774A.1 murine tissue macrophage line were obtained from the ATCC. Human aortic endothelial cells (HAEC) and human vascular smooth muscle cells (VSMS) were obtained from Cambrex Bio Science. Jurkat E6-1T-lymphocytes were kindly provided by Dr. J. Kaye (The Scripps Research Institute). Cells were cultured in ATCC-recommended media with 10% fetal calf serum. Cells were incubated in a controlled atmosphere at 37° C., with 5 or 7% CO2. For lactate dehydrogenase (LDH) release assays, adherent cells were harvested either by addition of 0.05% trypsin/EDTA or by scraping. The cells obtained were seeded onto 96-well microtiter plates (25,000 cells/well) and allowed to recover for 24-48 h. Cells were washed gently and media replaced with fresh media containing 5% fetal calf serum. […] Cytotoxicity was then determined by measuring lactate dehydrogenase (LDH) release from cells in culture. […] 100% Cytotoxicity was defined as the maximum amount of LDH released by dead cells as shown by trypan blue exclusion, or the highest amount of LDH detected upon lysis of cells by 0.9% Triton X-100. The IC50 values were determined by comparison of the raw duplicate data for concentration versus cytotoxicity (%) to non-linear regression analysis (Hill plot) using Graphpad v3.0 software for Macintosh.

[2] = tested on: THP-1 monocytes; assay: Monocyte morphology changes (differentiation into macrophages); format: cell-based, human; conditions: 12.5 or 25 μM, up to 7 days
Protocol: THP-1 monocytes in suspension were plated in 8-well chambered slides. […] Media containing appropriate treatment compounds was replaced after 4 days. After 4 days treatment, morphologic changes of the adherent cells were assessed by phase-contrast microscopy and photographed using an Olympus Microfire digital camera.

[3] = tested on: E-selectin (CD62E); assay: Endothelial adhesion molecule expression by ELISA, E-selectin; format: cell-based, human; conditions: HAAE-1, not complexed with LDL
Protocol: (§1) Endothelial cell surface adhesion molecule expression was measured by ELISA, using anti-human CD54 (ICAM-1), CD106 (VCAM-1) and CD62E (E-Selectin) antibodies (Leinco Technologies, Inc., St. Louis, Mo.). The ELISA method was modified from previously described procedures.
(§2) Cells were then incubated with antibodies to VCAM-1, E-selectin, or ICAM-1 diluted 1:400 in PBS containing 5% FCS at 37° C. for 30 min. Wells were washed two times with PBS, then incubated with horseradish peroxidase (HRP)-conjugated goat anti-mouse IgG (Southern Biotechnology Associates, Birmingham, Ala., USA) in PBS/5% FCS at 37° C. for 30 min. The wells were washed four times with PBS, then incubated with H2O2/3,3′,5,5′-tetramethyl-benzidine peroxidase substrate (Pierce Chemical, Rockford, Ill., USA) for 30 min in the dark. The reaction was stopped by adding 25 μl of 8 N H2SO4, and the plates read on a microplate reader, blanking on wells stained with only secondary antibody. Each assay was performed in triplicate and the data are reported as the mean±SEM as a percentage of the expression level of the vehicle. To study the effect of cholesterol ozonation product 5a concentration (5-50 μM) on E-selectin expression, the assay was performed in an identical fashion as described above, with each point being the mean±SEM of at least duplicate measurements.

[4] = tested on: VCAM-1 (CD106); assay: Endothelial adhesion molecule expression by ELISA, VCAM-1; format: cell-based, human; conditions: HAAE-1, not complexed with LDL
Protocol: as §1, §2

[5] = tested on: J774.1 macrophages; assay: Lipid-loading assay (foam cell formation); format: cell-based, murine; conditions: LDL 100 μg/mL with 4a or 5a (20 μM), 72 h, unactivated J774.1 macrophages
Protocol: Lipid-loading assay (foam cell formation). J774.1 macrophages were incubated in ATCC-recommended media containing 10% fetal bovine serum under a controlled atmosphere of 5 or 7% CO2 at 37° C., in 8-well chamber slides. […] At termination, cells were washed twice with PBS (pH 7.4). The cells were then fixed with 6% (v/v) paraformaldehyde in PBS for 30 minutes, rinsed with propylene glycol for 2 minutes and lipids were stained with 5 mg/ml Oil Red 0 for 8 minutes. The cells were counterstained with Harris' hematoxylin for 45 seconds, and background staining was removed with 6% paraformaldehyde followed by washing once in PBS and once in tap water. Cover slips were mounted onto the glass slides using glycerol and the slide preparations were examined by light microscopy. The number of lipid-laden cells was scored out of a total of at least 100 cells counted in a single field in each slide, and expressed as a percentage of total cells. Photographs were taken at 100× magnification.

[6] = tested on: neuronal cell lines; assay: Cytotoxicity towards neuronal cell lines (similar procedures); format: cell-based
[7] = molecular target: LDL / apoB-100 (Homo sapiens, UniProt P04114); assay: Circular dichroism of LDL secondary structure; conditions: LDL 100 μg/ml with 10 μM compound, PBS pH 7.4, 37° C., up to 48 h; normal LDL ~40±2%
LDL / apoB-100, sequence (P04114 28-4563): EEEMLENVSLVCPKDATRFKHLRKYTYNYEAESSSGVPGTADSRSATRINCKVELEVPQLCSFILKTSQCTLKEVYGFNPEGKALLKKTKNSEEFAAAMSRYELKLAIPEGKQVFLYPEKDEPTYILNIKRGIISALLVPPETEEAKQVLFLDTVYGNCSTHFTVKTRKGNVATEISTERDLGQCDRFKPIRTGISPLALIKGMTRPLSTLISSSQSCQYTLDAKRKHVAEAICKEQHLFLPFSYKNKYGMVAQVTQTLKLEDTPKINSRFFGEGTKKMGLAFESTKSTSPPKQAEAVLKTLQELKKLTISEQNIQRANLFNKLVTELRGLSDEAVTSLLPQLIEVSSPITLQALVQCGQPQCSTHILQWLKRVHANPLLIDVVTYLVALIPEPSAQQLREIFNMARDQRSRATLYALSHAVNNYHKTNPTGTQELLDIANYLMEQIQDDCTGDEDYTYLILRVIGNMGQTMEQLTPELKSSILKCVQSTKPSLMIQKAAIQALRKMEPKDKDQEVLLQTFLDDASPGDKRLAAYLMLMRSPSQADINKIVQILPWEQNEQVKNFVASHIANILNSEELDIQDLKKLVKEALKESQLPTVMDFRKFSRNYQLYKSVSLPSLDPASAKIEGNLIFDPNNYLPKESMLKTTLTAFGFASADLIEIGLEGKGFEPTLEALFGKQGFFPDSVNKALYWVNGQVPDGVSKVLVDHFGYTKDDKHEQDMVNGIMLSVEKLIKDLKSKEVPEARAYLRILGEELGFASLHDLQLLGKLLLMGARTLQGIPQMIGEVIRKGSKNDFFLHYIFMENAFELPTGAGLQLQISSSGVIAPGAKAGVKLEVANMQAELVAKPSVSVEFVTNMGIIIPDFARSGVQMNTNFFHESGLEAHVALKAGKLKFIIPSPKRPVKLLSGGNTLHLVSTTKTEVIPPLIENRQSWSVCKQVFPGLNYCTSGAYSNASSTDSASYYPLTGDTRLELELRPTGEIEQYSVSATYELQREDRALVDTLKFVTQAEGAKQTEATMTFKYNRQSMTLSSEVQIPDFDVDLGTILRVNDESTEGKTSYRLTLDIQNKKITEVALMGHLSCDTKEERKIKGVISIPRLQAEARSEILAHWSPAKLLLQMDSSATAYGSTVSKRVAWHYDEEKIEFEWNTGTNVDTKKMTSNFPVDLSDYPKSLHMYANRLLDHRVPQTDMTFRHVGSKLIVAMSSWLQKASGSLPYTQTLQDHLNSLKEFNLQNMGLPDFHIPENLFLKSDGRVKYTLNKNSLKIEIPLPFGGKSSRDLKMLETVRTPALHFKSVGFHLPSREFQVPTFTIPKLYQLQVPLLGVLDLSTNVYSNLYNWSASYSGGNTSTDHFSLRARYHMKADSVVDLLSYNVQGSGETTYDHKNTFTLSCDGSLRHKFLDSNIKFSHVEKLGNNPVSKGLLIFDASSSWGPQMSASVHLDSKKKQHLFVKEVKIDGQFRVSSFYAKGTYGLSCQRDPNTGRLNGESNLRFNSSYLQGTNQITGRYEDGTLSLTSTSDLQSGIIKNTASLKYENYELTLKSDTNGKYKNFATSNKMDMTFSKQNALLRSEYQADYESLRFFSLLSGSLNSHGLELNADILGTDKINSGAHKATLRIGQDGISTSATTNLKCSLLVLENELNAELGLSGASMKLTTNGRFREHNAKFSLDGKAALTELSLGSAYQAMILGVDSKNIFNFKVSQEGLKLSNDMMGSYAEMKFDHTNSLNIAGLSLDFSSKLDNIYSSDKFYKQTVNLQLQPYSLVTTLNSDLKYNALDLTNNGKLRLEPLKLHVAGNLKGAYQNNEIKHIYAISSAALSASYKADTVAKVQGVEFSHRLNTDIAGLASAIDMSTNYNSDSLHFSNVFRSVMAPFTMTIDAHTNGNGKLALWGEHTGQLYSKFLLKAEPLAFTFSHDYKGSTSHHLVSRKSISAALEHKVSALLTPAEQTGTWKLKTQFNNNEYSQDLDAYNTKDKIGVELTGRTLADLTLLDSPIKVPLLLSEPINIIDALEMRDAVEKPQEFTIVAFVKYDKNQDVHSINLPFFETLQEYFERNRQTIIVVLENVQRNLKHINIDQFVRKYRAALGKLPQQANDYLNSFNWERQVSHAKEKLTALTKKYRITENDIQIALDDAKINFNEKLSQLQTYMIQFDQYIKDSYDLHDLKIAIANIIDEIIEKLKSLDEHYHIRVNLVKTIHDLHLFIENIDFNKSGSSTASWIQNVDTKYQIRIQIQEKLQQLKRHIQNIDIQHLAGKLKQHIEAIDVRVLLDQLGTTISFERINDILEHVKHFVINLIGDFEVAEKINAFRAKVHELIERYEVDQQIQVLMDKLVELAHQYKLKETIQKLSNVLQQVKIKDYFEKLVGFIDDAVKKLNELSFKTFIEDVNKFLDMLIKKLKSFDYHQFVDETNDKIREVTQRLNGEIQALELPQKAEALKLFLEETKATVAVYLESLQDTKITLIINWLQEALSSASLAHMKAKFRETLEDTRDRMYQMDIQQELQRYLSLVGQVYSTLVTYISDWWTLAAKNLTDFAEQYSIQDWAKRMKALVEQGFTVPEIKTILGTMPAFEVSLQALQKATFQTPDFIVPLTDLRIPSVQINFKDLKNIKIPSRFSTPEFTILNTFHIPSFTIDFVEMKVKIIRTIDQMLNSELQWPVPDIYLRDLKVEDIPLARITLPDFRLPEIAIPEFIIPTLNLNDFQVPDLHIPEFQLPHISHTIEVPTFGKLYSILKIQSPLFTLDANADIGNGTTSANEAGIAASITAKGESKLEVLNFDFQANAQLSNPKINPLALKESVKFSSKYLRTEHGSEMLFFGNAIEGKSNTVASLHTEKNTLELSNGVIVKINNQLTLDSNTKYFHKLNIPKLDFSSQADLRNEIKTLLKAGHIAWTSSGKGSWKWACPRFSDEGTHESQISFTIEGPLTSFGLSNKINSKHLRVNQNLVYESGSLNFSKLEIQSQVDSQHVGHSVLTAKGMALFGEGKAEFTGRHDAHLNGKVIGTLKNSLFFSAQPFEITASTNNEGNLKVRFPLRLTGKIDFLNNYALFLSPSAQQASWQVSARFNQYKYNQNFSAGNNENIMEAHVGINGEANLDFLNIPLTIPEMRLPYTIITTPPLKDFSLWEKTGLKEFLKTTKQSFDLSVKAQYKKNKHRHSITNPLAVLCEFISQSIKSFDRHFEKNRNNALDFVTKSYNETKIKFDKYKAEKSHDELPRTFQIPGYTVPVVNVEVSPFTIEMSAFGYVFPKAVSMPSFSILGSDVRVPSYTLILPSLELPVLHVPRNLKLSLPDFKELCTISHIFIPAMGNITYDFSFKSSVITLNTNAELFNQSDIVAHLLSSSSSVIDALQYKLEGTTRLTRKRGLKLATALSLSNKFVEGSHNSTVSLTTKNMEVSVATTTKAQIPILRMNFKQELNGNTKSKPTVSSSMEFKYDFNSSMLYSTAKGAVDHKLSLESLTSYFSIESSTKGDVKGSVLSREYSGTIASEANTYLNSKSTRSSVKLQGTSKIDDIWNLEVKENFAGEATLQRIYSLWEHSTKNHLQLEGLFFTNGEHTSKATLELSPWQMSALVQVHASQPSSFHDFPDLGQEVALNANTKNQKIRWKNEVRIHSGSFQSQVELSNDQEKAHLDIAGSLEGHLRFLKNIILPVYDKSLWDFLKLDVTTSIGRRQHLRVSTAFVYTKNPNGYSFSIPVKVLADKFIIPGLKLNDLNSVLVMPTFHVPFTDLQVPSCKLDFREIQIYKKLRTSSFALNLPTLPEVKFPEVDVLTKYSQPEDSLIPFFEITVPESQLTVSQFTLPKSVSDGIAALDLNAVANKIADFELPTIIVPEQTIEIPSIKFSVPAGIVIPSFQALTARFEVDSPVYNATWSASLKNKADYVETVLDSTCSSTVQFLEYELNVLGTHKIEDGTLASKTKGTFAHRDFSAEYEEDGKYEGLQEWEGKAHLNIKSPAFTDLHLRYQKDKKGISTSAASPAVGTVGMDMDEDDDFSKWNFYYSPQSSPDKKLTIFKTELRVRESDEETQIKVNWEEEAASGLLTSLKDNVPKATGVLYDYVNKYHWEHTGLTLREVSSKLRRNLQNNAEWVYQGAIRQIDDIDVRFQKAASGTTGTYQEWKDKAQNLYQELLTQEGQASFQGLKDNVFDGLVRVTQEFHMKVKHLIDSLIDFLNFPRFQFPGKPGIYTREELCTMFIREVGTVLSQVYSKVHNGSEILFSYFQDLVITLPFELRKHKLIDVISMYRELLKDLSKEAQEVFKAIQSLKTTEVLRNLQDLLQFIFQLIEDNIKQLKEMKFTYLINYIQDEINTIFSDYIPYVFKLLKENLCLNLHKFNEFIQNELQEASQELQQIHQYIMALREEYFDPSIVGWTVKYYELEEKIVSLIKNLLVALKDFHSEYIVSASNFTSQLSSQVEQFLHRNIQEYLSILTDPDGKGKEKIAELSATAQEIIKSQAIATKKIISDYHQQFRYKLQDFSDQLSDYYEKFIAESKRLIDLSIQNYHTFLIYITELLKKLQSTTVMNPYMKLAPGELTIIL
Protocol: Spectra were recorded in the peptidic range (200-260 nm). To increase the signal-to-noise ratio, multiple spectra (three) were averaged for each measurement. The deconvolution of the molar elipticity spectra for each measurement was performed using the CDPro suite of software (by Narasimha Sreerama from Colorado State University) on a Dell PC.

[8] = tested on: CD36; assay: Scavenger receptor expression by flow cytometry, CD36; format: cell-based, murine
Protocol: (§3) Cell surface CD36 and SR-A were measured by flow cytometry using CD36 (BD Biosciences Pharmingen, San Diego, Calif.) and CD204 (Serotec, Oxford, UK) specific monoclonal antibodies. See Liao et al. (2000) Arterioscler. Thromb. Vasc. Biol. 20: 1968-75; Hu et al. (1996) Blood 87: 2020-28. Murine macrophage J774A.1 cells were serum-starved overnight in media with 0.5% BSA. Cells (1×10^6) treated with cholesterol ozonation products or cholesterol ozonation product complexed with LDL for specified times were then washed twice with PBS. After harvesting the cells by scraping, they were fixed with 6% paraformaldehyde for 20 min; Cells were then resuspended in PBS containing 2% heat-inactivated FCS, 0.05% NaN3 and appropriate primary antibody, antibody conjugate or isotype control (1:100 dilution) and incubated on ice for 30 min. Expression of either CD36 or SR-A was determined with CD36 (BD Biosciences Pharmingen, San Diego, Calif.) and CD204 (Serotec, Oxford, U.K.) specific monoclonal antibodies, respectively. After washing off the primary antibody, secondary antibodies were added, cells were washed again, then analyzed on a FACS calibur 2 (Becton Dickinson, Sparks, Md.) flow cytometer and analyzed by CellQuant software. Results were expressed as mean fluorescence intensity±standard error of the mean (SEM) of at least duplicate determinations. Significance was determined using a student two-tail t test, with (*) indicating p<0.05, and (**) indicating p<0.01 versus the control.

[9] = tested on: ICAM-1 (CD54); assay: Endothelial adhesion molecule expression by ELISA, ICAM-1; format: cell-based, human; conditions: HAAE-1, not complexed with LDL
Protocol: as §1, §2

[10] = tested on: murine macrophage J774A.1; assay: Modified Boyden chamber migration (chemotaxis) assay; format: cell-based
Protocol: Chemotaxis and invasion assays were performed using a modified Boyden chamber migration assay. Zwirner et al. (1998) Eur. J. Immunol. 28: 1570-77; Wilkinson (1988) Methods Enzymol. 162: 38-50. Assays were set up on MultiScreen-MIC plates (Millipore, Billerica, Mass., USA) with polyvinylpyrrolidone-free polycarbonate membranes (5 μm pore size). Cells (murine macrophage J774A.1) were washed and resuspended in serum-free DMEM containing 0.2% BSA at 1×10^6 cells/ml. Fifty microliters of cells were added to the upper wells and 150 μl of chemoattractant in DMEM/0.2% BSA were added to the lower wells of the microchamber. Incubation time was for 4 h at 37° C. in an 8% CO2 atmosphere. After swiping cells off the upper side of the membrane, cells on the lower side were visualized by either staining and phase contrast microscopy, or fluorescence. Cells that had adhered to the membrane were stained using a DiffQuik staining kit (Dade Behring, Newark, Del.). Each experiment was performed in triplicate and the numbers of migrating cells were counted in five fields at ×200. Cells harvested with PBS-EDTA for fluorescent labeling were washed two times with PBS, then resuspended in serum-free medium containing calcein AM (5 μM). Cells were incubated for 30 min (37° C., 5% CO2) with gentle intermittent mixing. Calcein-labeled cells were washed twice, and calcein fluorescence ([…]) was measured using a SPECTRAmax™ GEMINI dual-scanning microplate spectrofluorometer. Fluorescence measurements were compared to a standard curve, generated by dilution of cells in PBS/BSA in 100 μl, dispensed into 96-well plates. Fluorescence was quantified as described above.

[11] = tested on: U-937 monocytes cells; assay: Monocyte adhesion to endothelial cell monolayers by fluorescence spectroscopy; format: cell-based; conditions: alone or in complex with LDL
[12] = Decrease of extractable 5a in stored plasma; format: in vitro ADME; conditions: stored human plasma, preliminary investigations
Protocol: Plasma samples were obtained from patients (n=8) who were scheduled to undergo carotid endarterectomy within 24 h. […] Control plasma samples were obtained from random patients (n=15) attending a general medical clinic and were analyzed 7 days after collection. In a typical procedure, plasma in EDTA (1 ml) was washed with dichloromethane (DCM, 3×1 mL). The combined organic fractions were evaporated in vacuo. The residue was dissolved in methanol (0.9 mL) and a solution of 2,4-dinitrophenyl hydrazine (100 μL, 0.01 M, Lancaster) and 1N HCl in ethanol was added. Nitrogen was bubbled through the solution for 5 min and then the solution was stirred for 2 h. The resultant solution was filtered through a 0.22 μm filter and the filtrate was analyzed by the HPLC assay vide supra.

[13] = tested on: Class A scavenger receptor (SR-A); assay: Scavenger receptor expression by flow cytometry, SR-A; format: cell-based, murine; conditions: cultured macrophages, compound in the absence of LDL
Protocol: as §3, with “After harvesting the cells by scraping, they were fixed with 6% paraformaldehyde for 20 min; Cells were then resuspended in PBS containing 2% heat-inactivated FCS, 0.05% NaN3 and appropriate primary antibody, antibody conjugate or isotype control (1:100 dilution) and incubated on ice for 30 min.” left out

For CC(C)CCC[C@@H](C)[C@H]1CCC2C3C(CC[C@@]21C)[C@@]1(C)CCC=C[C@@]1(O)[C@@H]3C=O (stereo partly drawn) [7a, 5β-Hydroxy-B-norcholest-3-ene-6β-carboxaldehyde], the “cytotoxicity to leukocyte cell lines” value [1] was “cytotoxic”.
For CC(C)CCC[C@@H](C)[C@H]1CCC2C3C(C=O)=C4C=CCC[C@]4(C)C3CC[C@@]21C (stereo partly shown) [12a, B-norcholest-3,5-diene-6-carboxaldehyde], the “cytotoxicity to leukocyte cell lines” value [1] was “cytotoxic”.
In the case of CC(C)CCC[C@@H](C)[C@H]1CC[C@H]2[C@@H]3C(=O)C=C4C[C@@H](O)CC[C@]4(C)[C@H]3CC[C@]12C [7-KC, 7-ketocholesterol, reference compound], the “THP-1 monocyte differentiation into macrophages (adherence, morphology)” value [2] is reported as “began to adhere after 4 days”.
In the case of CC(C)CCC[C@@H](C)[C@H]1CCC2[C@H](CC=O)C([C@@]3(C)CCCCC(=O)O3)CC[C@@]21C (stereo partly shown) [11a], the “cytotoxicity to leukocyte cell lines” value [1] is reported as “cytotoxic”.
In the case of CC(C)CCC[C@@H](C)[C@H]1CCC2C(CC=O)C([C@@]3(C)CCC=CC3=O)CC[C@@]21C (stereo partly shown) [6a, 5-Oxo-5,6-secocholest-3-en-6-al], the “cytotoxicity to leukocyte cell lines” value [1] is reported as “cytotoxic”.
For CC(C)CCC[C@@H](C)[C@H]1CCC2[C@H](CC(=O)O)C([C@@]3(C)CC[C@H](O)CC3=O)CC[C@@]21C (stereo partly shown) [10a], the “cytotoxicity to leukocyte cell lines” value [1] was “cytotoxic”.
For CC(C)CCC[C@@H](C)[C@H]1CCC2C3C(CC[C@@]21C)[C@@]1(C)CCC=C[C@@]1(O)[C@@H]3CO (stereo partly shown) [7c], the “cytotoxicity to leukocyte cell lines” value [1] was “cytotoxic”.
In the case of CC(C)CCC[C@@H](C)[C@H]1CCC2C3C(CC[C@@]21C)[C@@]1(C)CC[C@H](O)C[C@@]1(O)[C@@H]3C=O (stereo partly drawn) [5a, 3β-Hydroxy-5β-hydroxy-B-norcholestane-6βcarboxaldehyde], the “selectin (E-selectin) expression” value [3] is reported as “no effects”, the “integrin expression (VCAM-1)” value [4] is reported as “no effects” and the “lipid-loading of macrophages / foam cell formation” value [5] is reported as “began lipid-loading and foam cells began to appear”. The “cytotoxicity towards neuronal cell lines” value [6] was “cytotoxic”, the “a helical structure of LDL” value [7] was ~20±2% and the CD36 expression ([8]; J774A.1, 25 μM compound complexed with LDL (100 μg/ml protein), 6 h) was “little or no effect”. For the same compound, the CD36 expression ([8]; cultured macrophages, compound in the absence of LDL) was “did not increase expression of either receptor”, the “integrin expression (ICAM-1)” value [9] was “no effects” and the “recruitment (migration) of macrophages” value ([10]; 0-25 μM, 4 h, P<0.001) was “dose-dependent recruitment of macrophages”. The migration of macrophages ([10]; compound co-incubated with BSA) was “macrophage migration still occurs”, the migration of macrophages ([10]; compound complexed with native LDL (100 μg/ml)) was “no significant migration” and the “adhesion of U-937 monocytes to endothelial cell monolayers, above that of LDL alone” value [11] was “neither ozonolysis product 4a nor 5a, alone or in complex with LDL, nor CuOx-LDL significantly increased adhesion”. The “decrease of the amount of 5a that can be extracted from plasma” value [12] was “about 5 % per day”, the SR-A expression [13] was “did not increase expression of either receptor” and the “THP-1 monocyte differentiation into macrophages (adherence, morphology)” value [2] was “displayed hypertrophy, developed cytoplasmic vacuoles, and formed extended processes, all characteristic of mature macrophages”.
